Measurements taken from patent EP1561465A2, “Methods of use of fluoroquinolone compounds against bacteria” (LG Life Sciences, Ltd., priority 1999, dated 2001).
Converted amounts (≈) assume the structure as drawn. Read-outs that look alike come from different tables or passages of the source.

Columns and labels:
[1] = system: Campylobacter jejuni; experiment: MIC by agar dilution (NCCLS M7-A4), 288 enteropathogenic isolates, gemifloxacin and 15 other antimicrobials; conditions: Campylobacter jejuni
[2] = system: Salmonella spp.; experiment: as above; type: cell-based; conditions: for MIC: Salmonella
[3] = system: Hafnia alvei; experiment: as above; type: cell-based; conditions: for MIC: Hafnia alvei
[4] = system: Aeromonas spp.; experiment: as above; type: cell-based; conditions: for MIC: Aeromonas
[5] = system: Shigella spp.; experiment: as above; type: cell-based; conditions: Shigella spp. N= 21
Procedure, shortened: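 Agar dilution with ~10^4 cfu/spot inoculum; plates incubated aerobically at 35 °C for 24 h, except C. jejuni, held microaerophilically for 48 h. MIC taken as lowest antibiotic concentration with no visible growth.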

[6] = system: Campylobacter jejuni; conditions: Campylobacter jejuni N= 91
[7] = system: Yersinia enterocolitica; experiment: MIC by agar dilution (NCCLS M7-A4), 288 enteropathogenic isolates, gemifloxacin and 15 other antimicrobials; type: cell-based; conditions: for MIC: Yersinia enterocolitica

## CO/N=C1\CN(c2nc3c(cc2F)c(=O)c(C(=O)O)cn3C2CC2)CC1CN (racemic) [Gemifloxacin (SB 265805)]
[1]; read-out: MIC (mg/L) 50%
  MIC: 32 mg/L (≈ 82.2 µM)
[1]; read-out: MIC (mg/L) 90%
  MIC: 128 mg/L (≈ 329 µM)
[2]; Salmonella spp. N= 106
  % Susceptible: 100%
  MIC (mg/L) Range: ≤0.015 to 0.25 mg/L
[2]; read-out: MIC (mg/L) 50%, Salmonella spp. N= 106
  MIC: 0.03 mg/L (≈ 0.077 µM)
[2]; read-out: MIC (mg/L) 90%, Salmonella spp. N= 106
  MIC: 0.12 mg/L (≈ 0.308 µM)
[3]; Hafnia alvei N= 32
  % Susceptible: 100%
[3]; read-out: MIC (mg/L) 50%
  MIC: 0.03 mg/L (≈ 0.077 µM)
[3]; read-out: MIC (mg/L) 90%
  MIC: 0.03 mg/L (≈ 0.077 µM)
[4]; Aeromonas spp. N= 16
  % Susceptible: 100%
[4]; read-out: MIC (mg/L) 50%
  MIC: ≤ 0.015 mg/L
[4]; read-out: MIC (mg/L) 90%
  MIC: 0.03 mg/L (≈ 0.077 µM)
[5]
  % Susceptible: 100%
  MIC (mg/L) Range: ≤0.015 mg/L
[5]; read-out: MIC (mg/L) 50%
  MIC: ≤ 0.015 mg/L
[5]; read-out: MIC (mg/L) 90%
  MIC: ≤ 0.015 mg/L
[6]
  % Susceptible: 32%
  MIC (mg/L) Range: 0.03 to 128 mg/L
[7]; Yersinia enterocolitica N= 22
  % Susceptible: 100%
  MIC (mg/L) Range: ≤0.015 to 0.12 mg/L
[7]; read-out: MIC (mg/L) 50%
  MIC: 0.03 mg/L (≈ 0.077 µM)
[7]; read-out: MIC (mg/L) 90%
  MIC: 0.03 mg/L (≈ 0.077 µM)
